Tests used:
[1] = molecular target: T1, BmrC/BmrD (Bacillus subtilis, UniProt O07549+O07550); assay: fluorescence transport assay, inside-out E. coli membrane vesicles; type: biochemical; details: 2 mM ATP or GTP, Walker-A K/A double mutant as control
T1 construct: full-length heterodimer overexpressed in E. coli, inside-out membrane vesicles

[2] = system: Nc1nc2c(ncn2[C@@H]2O[C@H](COP(=O)(O)OP(=O)(O)OP(=O)(O)O)[C@@H](O)[C@H]2O)c(=O)[nH]1; assay: purified protein; type: biochemical, Streptococcus pneumoniae; details: proteoliposomes of E. coli lipids, 10 mM MgCl2, pH 8, 37 °C, cooperative fit, nH 1.74
[3] = molecular target: T2, PatA/PatB (Streptococcus pneumoniae, UniProt Q8DN70+Q8DN72); assay: coupled NADH oxidation assay, GTPase; type: biochemical; details: nanodiscs of S. pneumoniae lipids, 4 mM GTP, 2 mM MgCl2, pH 7.4
T2 construct: gene ABC-NP; models PatA 1-564, PatB 1-603
T2 sequence (Q8DN70 entry or part of it): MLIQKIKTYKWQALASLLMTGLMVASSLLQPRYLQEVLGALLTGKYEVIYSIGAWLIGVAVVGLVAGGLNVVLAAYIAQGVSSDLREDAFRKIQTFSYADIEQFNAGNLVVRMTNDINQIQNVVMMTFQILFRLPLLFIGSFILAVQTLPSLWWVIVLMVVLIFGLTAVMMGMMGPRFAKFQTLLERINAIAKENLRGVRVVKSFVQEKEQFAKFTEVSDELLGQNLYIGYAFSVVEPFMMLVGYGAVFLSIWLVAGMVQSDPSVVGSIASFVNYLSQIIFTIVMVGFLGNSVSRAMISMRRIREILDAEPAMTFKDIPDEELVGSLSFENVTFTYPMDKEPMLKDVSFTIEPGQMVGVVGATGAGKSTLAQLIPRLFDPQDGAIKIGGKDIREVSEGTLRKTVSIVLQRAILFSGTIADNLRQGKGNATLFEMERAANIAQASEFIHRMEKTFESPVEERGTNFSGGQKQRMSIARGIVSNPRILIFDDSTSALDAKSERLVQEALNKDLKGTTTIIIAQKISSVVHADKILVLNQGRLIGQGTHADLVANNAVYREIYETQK
T2 sequence (Q8DN72 entry or part of it): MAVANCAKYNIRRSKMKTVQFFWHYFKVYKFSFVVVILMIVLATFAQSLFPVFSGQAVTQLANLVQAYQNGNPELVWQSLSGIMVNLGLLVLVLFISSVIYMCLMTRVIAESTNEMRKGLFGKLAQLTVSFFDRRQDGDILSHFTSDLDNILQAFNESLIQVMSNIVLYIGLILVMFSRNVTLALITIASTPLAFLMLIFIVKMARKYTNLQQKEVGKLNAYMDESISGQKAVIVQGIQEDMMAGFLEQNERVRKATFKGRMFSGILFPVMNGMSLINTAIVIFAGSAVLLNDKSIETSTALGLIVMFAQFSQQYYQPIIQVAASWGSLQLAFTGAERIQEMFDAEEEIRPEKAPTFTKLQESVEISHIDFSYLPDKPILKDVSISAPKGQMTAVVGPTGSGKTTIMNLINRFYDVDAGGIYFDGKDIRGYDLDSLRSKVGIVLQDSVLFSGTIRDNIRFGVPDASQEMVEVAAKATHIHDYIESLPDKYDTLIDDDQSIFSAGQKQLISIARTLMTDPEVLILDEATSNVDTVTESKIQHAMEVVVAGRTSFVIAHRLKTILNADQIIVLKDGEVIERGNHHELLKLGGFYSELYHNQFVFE

T1 sequence (O07550 whole entry): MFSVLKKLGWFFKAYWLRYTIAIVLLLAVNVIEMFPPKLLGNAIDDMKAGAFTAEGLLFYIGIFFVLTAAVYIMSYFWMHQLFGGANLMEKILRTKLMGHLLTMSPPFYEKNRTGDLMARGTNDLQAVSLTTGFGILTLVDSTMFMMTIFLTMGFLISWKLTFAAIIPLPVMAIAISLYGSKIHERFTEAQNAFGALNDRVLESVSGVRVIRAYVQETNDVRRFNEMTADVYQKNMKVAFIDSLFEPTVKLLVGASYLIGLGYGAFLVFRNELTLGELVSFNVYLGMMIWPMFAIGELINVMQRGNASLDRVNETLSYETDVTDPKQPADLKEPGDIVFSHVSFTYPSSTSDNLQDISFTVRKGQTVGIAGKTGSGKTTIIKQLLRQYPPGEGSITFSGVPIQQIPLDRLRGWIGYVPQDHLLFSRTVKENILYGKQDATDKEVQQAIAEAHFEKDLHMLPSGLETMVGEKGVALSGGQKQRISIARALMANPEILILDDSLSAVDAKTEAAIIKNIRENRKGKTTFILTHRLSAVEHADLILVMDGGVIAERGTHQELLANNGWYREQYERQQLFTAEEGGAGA
T1 sequence (O07549 whole entry): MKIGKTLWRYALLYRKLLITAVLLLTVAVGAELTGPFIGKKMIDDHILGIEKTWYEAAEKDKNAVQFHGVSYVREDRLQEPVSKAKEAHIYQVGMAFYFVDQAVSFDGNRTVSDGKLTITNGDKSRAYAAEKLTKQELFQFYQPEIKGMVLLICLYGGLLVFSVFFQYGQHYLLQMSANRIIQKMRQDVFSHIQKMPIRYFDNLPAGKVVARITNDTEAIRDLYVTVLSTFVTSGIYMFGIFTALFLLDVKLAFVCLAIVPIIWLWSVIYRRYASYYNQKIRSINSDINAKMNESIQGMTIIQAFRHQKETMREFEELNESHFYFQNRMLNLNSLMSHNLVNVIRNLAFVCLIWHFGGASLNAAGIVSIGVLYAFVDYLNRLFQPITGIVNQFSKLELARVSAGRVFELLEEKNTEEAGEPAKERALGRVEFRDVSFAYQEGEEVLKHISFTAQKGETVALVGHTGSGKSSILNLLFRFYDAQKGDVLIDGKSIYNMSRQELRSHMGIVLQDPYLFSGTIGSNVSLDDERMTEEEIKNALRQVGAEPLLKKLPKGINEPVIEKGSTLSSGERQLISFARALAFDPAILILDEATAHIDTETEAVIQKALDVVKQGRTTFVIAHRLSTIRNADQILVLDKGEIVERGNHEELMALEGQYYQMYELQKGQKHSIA

Compound: CCOc1ccc(-c2nc3ccc(-c4nc5ccc(N6CCN(C)CC6)cc5[nH]4)cc3[nH]2)cc1 [Hoechst 33342, 2′-(4-ethoxyphenyl)-5-(4-methyl-1-piperazinyl)-2,5′-bis-1H-benzimidazole]
- fluorescence transport assay, inside-out E. coli membrane vesicles ([1]; 1 µM Hoechst, 2 mM MgCl2, pH 8.0, 25 °C): BmrC/BmrD behaves as a conventional ABC transporter being more active in the presence of ATP

Compound: COc1cccc2c1C(=O)c1c(O)c3c(c(O)c1C2=O)C[C@@](O)(C(=O)CO)C[C@@H]3O[C@H]1C[C@H](N)[C@H](O)[C@H](C)O1 [doxorubicin]
- fluorescence transport assay, inside-out E. coli membrane vesicles ([1]; 2 µM doxorubicin, 2 mM MgCl2, pH 8.0, 25 and 37 °C): ATP was the preferred energy substrate for BmrC/BmrD at both temperatures

Compound: PatA/PatB (Streptococcus pneumoniae R6)
- Km [2]: 2640 ± 460 µM

Compound: [O]=[V]([OH])([OH])[OH] [orthovanadate]
- % inhibition at 4 mM [3]: 94%
